From patent publication US20200405696A1, “INHIBITORS OF INDOLEAMINE 2,3-DIOXYGENASE AND/OR TRYPTOPHAN 2,3-DIOXYGENASE” (IDORSIA PHARMACEUTICALS LTD, priority 2018, published 2020) come the findings set out here.

The target of test [1] is T1, Recombinant human TDO comprising amino acids 19-407 (Homo sapiens, UniProt P48775).
T1 construct: Recombinant human TDO comprising amino acids 19-407 with a N-terminal hexahistidine tag; hexahistidine (His6) (N); made in house; host or cells: E. coli
The experiment in a line: TDO2 enzymatic assay (NFK quantified by LCMS). Type of test: biochemical. To be noted: 15 nM enzyme, 200 μM L-tryptophan, pH7, 30 minutes pre-incubation at RT; mean values when measured multiple times; read-out: hTDO activity (IC50 in nM). The method in brief: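 NFK formed over 30 min at RT from 200 μM L-tryptophan was measured by LCMS, normalized to d5-tryptophan, after compound (0.5 nM–10 μM, duplicates, 0.6% DMSO) was preincubated 30 min with 15 nM recombinant His-tagged TDO 19-407 in phosphate buffer pH 7. IC50 from four-parameter logistic fit; repeats averaged.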

In test [2] the target is T2, Recombinant full-length human IDO1 (Homo sapiens, UniProt P14902).
T2 construct: Recombinant full-length human IDO1 with a N-terminal hexahistidine tag; hexahistidine (His6) (N); made in house; host or cells: E. coli
T2 sequence (P14902 whole entry): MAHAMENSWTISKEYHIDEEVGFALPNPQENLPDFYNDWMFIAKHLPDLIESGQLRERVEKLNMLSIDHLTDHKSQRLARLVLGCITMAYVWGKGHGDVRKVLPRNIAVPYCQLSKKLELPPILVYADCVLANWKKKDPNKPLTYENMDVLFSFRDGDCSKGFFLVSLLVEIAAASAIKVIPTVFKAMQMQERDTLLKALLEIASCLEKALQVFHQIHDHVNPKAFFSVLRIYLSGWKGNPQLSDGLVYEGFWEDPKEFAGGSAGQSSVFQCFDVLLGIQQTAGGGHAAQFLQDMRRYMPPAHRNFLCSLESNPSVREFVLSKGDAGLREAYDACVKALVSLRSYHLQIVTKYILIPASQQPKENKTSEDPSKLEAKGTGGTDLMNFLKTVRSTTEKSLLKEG
Nature of the test: IDO1 enzymatic assay (NFK quantified by LCMS). It counts as biochemical. The conditions noted are these: 2 nM enzyme, 5 μM L-tryptophan, pH6.5, 30 minutes pre-incubation at RT; mean values when measured multiple times; read-out: hIDO activity (IC50 in nM). An outline of the steps: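 IC50 comes from four-parameter logistic fits of duplicate data, with NFK quantified by LCMS and normalized to L-Trp-(indole-d5). Compound (0.5 nM–10 μM) was preincubated 30 min at RT with 2 nM E. coli-expressed IDO1 before a 30 min reaction with 5 μM tryptophan in pH 6.5 buffer containing ascorbate and methylene blue.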

A value given as a limit tells only on which side of the number the result lay.

T1 sequence (P48775 19-406 limits assumed): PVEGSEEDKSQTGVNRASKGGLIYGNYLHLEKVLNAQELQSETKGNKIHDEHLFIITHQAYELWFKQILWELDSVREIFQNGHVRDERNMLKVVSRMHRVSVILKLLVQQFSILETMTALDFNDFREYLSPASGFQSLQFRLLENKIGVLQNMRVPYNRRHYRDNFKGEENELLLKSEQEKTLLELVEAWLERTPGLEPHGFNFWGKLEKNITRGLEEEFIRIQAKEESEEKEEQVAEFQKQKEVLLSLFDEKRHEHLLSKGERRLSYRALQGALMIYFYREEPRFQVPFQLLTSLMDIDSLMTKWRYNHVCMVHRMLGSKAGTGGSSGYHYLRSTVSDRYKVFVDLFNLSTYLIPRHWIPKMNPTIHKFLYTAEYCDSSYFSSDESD

As a reminder, the IC50 is the concentration needed to halve the response being measured. Turning to `CCc1sc2cncn2c1C(O)c1cn(-c2cccc(C#N)c2)nn1` (racemic) [Example 51, rac-3-{4-[(2-Ethyl-imidazo[5,1-b]thiazol-3-yl)-hydroxy-methyl]-[1,2,3]triazol-1-yl}-benzonitrile], the results for the IC50 in test [1] and in test [2] were > 10200 nM and 37.1 nM, respectively.
Taken in the same sequence, the figures for `OCCCOc1ccc(-n2cc(C(O)c3c(C4CC4)sc4cncn34)nn2)cc1` (racemic) [Example 137, rac-3-(4-{4-[(2-Cyclopropyl-imidazo[5,1-b]thiazol-3-yl)-hydroxy-methyl]-[1,2,3]triazol-1-yl}-phenoxy)-propan-1-ol] were > 10200 nM and 11.1 nM.
Consider `O=C(NCCCO)c1ccc(-n2cc(C(O)c3c(C4CC4)sc4cncn34)nn2)cc1` (racemic) [Example 184, rac-4-{4-[(2-Cyclopropyl-imidazo[5,1-b]thiazol-3-yl)-hydroxy-methyl]-[1,2,3]triazol-1-yl}-N-(3-hydroxy-propyl)-benzamide], for which the IC50 was > 10200 nM in test [1] and 14.5 nM in test [2].
Taken in the same sequence, the figures for `COc1ncc(-n2cc(C(O)c3c(C4CC4)sc4cncn34)nn2)c(OC)n1` (racemic) [Example 84, rac-(2-Cyclopropyl-imidazo[5,1-b]thiazol-3-yl)-[1-(2,4-dimethoxy-pyrimidin-5-yl)-1H-[1,2,3]triazol-4-yl]-methanol] were > 10200 nM and 81.7 nM.
Taken in the same sequence, the figures for `Oc1ccc(-n2cc(C(O)c3c(C4CC4)sc4cncn34)nn2)cc1C(F)(F)F` (racemic) [Example 209, rac-4-{4-[(2-Cyclopropyl-imidazo[5,1-b]thiazol-3-yl)-hydroxy-methyl]-[1,2,3]triazol-1-yl}-2-trifluoromethyl-phenol] were > 10200 nM and 22.1 nM.
Consider `COC(=O)Nc1ccc(-n2cc(C(O)c3c(C4CC4)sc4cncn34)nn2)cc1` (racemic) [Example 36, rac-(4-{4-[(2-Cyclopropyl-imidazo[5,1-b]thiazol-3-yl)-hydroxy-methyl]-[1,2,3]triazol-1-yl}-phenyl)-carbamic Acid Methyl Ester], for which the IC50 in test [1] worked out at 8520 nM; in test [2] it was 11.1 nM.
`CCc1sc2cncn2c1C(O)c1cn(-c2ccc(C(=O)NCCCOC)cc2)nn1` (racemic) [Example 126, rac-4-{4-[(2-Ethyl-imidazo[5,1-b]thiazol-3-yl)-hydroxy-methyl]-[1,2,3]triazol-1-yl}-N-(3-methoxy-propyl)-benzamide]: the results for the IC50 in test [1] and in test [2] were > 10200 nM and 20.1 nM, respectively.
Taken in the same sequence, the figures for `CC(C)Oc1ncc(-n2cc(C(O)c3c(C4CC4)sc4cncn34)nn2)cc1Cl` (racemic) [Example 73, rac-[1-(5-Chloro-6-isopropoxy-pyridin-3-yl)-1H-[1,2,3]triazol-4-yl]-(2-cyclopropyl-imidazo[5,1-b]thiazol-3-yl)-methanol] were > 10200 nM and 36.1 nM.
Taken in the same sequence, the figures for `COc1ccc(-n2cc(C(O)c3c(C4CC4)sc4cncn34)nn2)cc1F` (racemic) [Example 327, rac-(2-Cyclopropyl-imidazo[5,1-b]thiazol-3-yl)-[1-(3-fluoro-4-methoxy-phenyl)-1H-[1,2,3]triazol-4-yl]-methanol] were > 10200 nM and 4.29 nM.
Take `NC(=O)Nc1ccc(-n2cc(C(O)c3c(C4CC4)sc4cncn34)nn2)cc1` (racemic) [Example 109, rac-(4-{4-[(2-Cyclopropyl-imidazo[5,1-b]thiazol-3-yl)-hydroxy-methyl]-[1,2,3]triazol-1-yl}-phenyl)-urea]: the IC50 was determined as 7110 nM in test [1] and 24 nM in test [2].
Take `CC(C)(C)OC(=O)Nc1ccc(-n2cc(C(O)c3c(C4CC4)sc4cncn34)nn2)c(F)c1` (racemic) [Example 151, rac-(4-{4-[(2-Cyclopropyl-imidazo[5,1-b]thiazol-3-yl)-hydroxy-methyl]-[1,2,3]triazol-1-yl}-3-fluoro-phenyl)-carbamic Acid Tert-Butyl Ester]: the IC50 in test [1] is > 10200 nM; in test [2], 55.8 nM.
Taken in the same sequence, the figures for `OC(c1cn(-c2ccc3c(Cl)n[nH]c3c2)nn1)c1c(C2CC2)sc2cncn12` (racemic) [Example 258, rac-[1-(3-Chloro-1H-indazol-6-yl)-1H-[1,2,3]triazol-4-yl]-(2-cyclopropyl-imidazo[5,1-b]thiazol-3-yl)-methanol] were > 10200 nM and 34 nM.
Taken in the same sequence, the figures for `N#Cc1cccc(-n2cc(C(O)c3c(C4CC4)sc4cncn34)nn2)c1` (racemic) [Example 18, rac-3-{4-[(2-Cyclopropyl-imidazo[5,1-b]thiazol-3-yl)-hydroxy-methyl]-[1,2,3]triazol-1-yl}-benzonitrile] were > 10200 nM and 9.32 nM.
In the case of `C=CCNC(=O)c1ccc(-n2cc(C(O)c3c(CC)sc4cncn34)nn2)cc1` (racemic) [Example 129, rac-N-Allyl-4-{4-[(2-ethyl-imidazo[5,1-b]thiazol-3-yl)-hydroxy-methyl]-[1,2,3]triazol-1-yl}-benzamide], the results for the IC50 in test [1] and in test [2] were 9780 nM and 9.29 nM, respectively.
As to `CCc1sc2cncn2c1C(O)c1cn(-c2ccc(NC(=O)C(C)C)cc2)nn1` (racemic) [Example 127, rac-N-(4-{4-[(2-Ethyl-imidazo[5,1-b]thiazol-3-yl)-hydroxy-methyl]-[1,2,3]triazol-1-yl}-phenyl)-isobutyramide], the IC50 in test [1] was 7750 nM; in test [2], 8.21 nM.
Taken in the same sequence, the figures for `OC(c1cn(-c2ccccc2C(F)(F)F)nn1)c1c(C2CC2)sc2cncn12` (racemic) [Example 29, rac-(2-Cyclopropyl-imidazo[5,1-b]thiazol-3-yl)-[1-(2-trifluoromethyl-phenyl)-1H-[1,2,3]triazol-4-yl]-methanol] were > 10200 nM and 163 nM.
Taken in the same sequence, the figures for `OCCOCCOc1ccc(-n2cc(C(O)c3c(C4CC4)sc4cncn34)nn2)cc1` (racemic) [Example 138, rac-2-[2-(4-{4-[(2-Cyclopropyl-imidazo[5,1-b]thiazol-3-yl)-hydroxy-methyl]-[1,2,3]triazol-1-yl}-phenoxy)-ethoxy]-ethanol] were > 10200 nM and 16.5 nM.
Taken in the same sequence, the figures for `OC(c1cn(-c2cn[nH]c2)nn1)c1c(C2CC2)sc2cncn12` (racemic) [Example 41, rac-(2-Cyclopropyl-imidazo[5,1-b]thiazol-3-yl)-[1-(1H-pyrazol-4-yl)-1H-[1,2,3]triazol-4-yl]-methanol] were > 10200 nM and 305 nM.
In the case of `COc1ccc(-n2nnc(C(O)c3c(C4CC4)sc4cncn34)c2C)cc1` (racemic) [Example 252, rac-(2-Cyclopropyl-imidazo[5,1-b]thiazol-3-yl)-[1-(4-methoxy-phenyl)-5-methyl-1H-[1,2,3]triazol-4-yl]-methanol], the IC50 in test [1] worked out at 7010 nM; in test [2], 4.13 nM.
Taken in the same sequence, the figures for `OC(c1cn(-c2ccc(OCC3(F)COC3)cc2)nn1)c1c(C2CC2)sc2cncn12` (racemic) [Example 145, rac-(2-Cyclopropyl-imidazo[5,1-b]thiazol-3-yl)-{1-[4-(3-fluoro-oxetan-3-ylmethoxy)-phenyl]-1H-[1,2,3]triazol-4-yl}-methanol] were > 10200 nM and 7.77 nM.
Taken in the same sequence, the figures for `OC(c1cn(-c2ccc(OCC3COC3)cc2)nn1)c1c(C2CC2)sc2cncn12` (racemic) [Example 88, rac-(2-Cyclopropyl-imidazo[5,1-b]thiazol-3-yl)-{1-[4-(oxetan-3-ylmethoxy)-phenyl]-1H-[1,2,3]triazol-4-yl}-methanol] were > 10200 nM and 12.6 nM.
Taken in the same sequence, the figures for `CC(C)C(=O)Nc1ccc(-n2cc(C(O)c3c(C4CC4)sc4cncn34)nn2)cc1Cl` (racemic) [Example 284, rac-N-(2-Chloro-4-{4-[(2-cyclopropyl-imidazo[5,1-b]thiazol-3-yl)-hydroxy-methyl]-[1,2,3]triazol-1-yl}-phenyl)-isobutyramide] were > 10200 nM and 273 nM.
In the case of `CCc1sc2cncn2c1C(O)c1cn(-c2ccc3[nH]ccc3c2)nn1` (racemic) [Example 50, rac-(2-Ethyl-imidazo[5,1-b]thiazol-3-yl)-[1-(1H-indol-5-yl)-1H-[1,2,3]triazol-4-yl]-methanol], the IC50 in test [1] came out at 1970 nM; in test [2], 9.63 nM.
Taken in the same sequence, the figures for `Nc1ccc(-n2cc(C(O)c3c(C4CC4)sc4cncn34)nn2)cc1Cl` (racemic) [Example 278, rac-[1-(4-Amino-3-chloro-phenyl)-1H-[1,2,3]triazol-4-yl]-(2-cyclopropyl-imidazo[5,1-b]thiazol-3-yl)-methanol] were > 10200 nM and 8.71 nM.
Taken in the same sequence, the figures for `COc1ccc(-n2cc(C(O)c3c(/C=C/C4CC4)sc4cncn34)nn2)cc1` (racemic) [Example 270, rac-[2-((E)-2-Cyclopropyl-vinyl)-imidazo[5,1-b]thiazol-3-yl]-[1-(4-methoxy-phenyl)-1H-[1,2,3]triazol-4-yl]-methanol] were > 10200 nM and 71.5 nM.
